Results on 1 molecule are retold here after patent US20200038314A1, “PROCESS FOR PREVENTING OR SLOWING THE APPEARANCE OF UNATTRACTIVE SIGNS, GENERATED BY POLLUTANTS PRESENT IN THE ATMOSPHERE, ON THE SKIN, THE SCALP, THE HAIR OR THE MUCOUS MEMBRANES” (SOCIETE D'EXPLOITATION DE PRODUITS POUR LES INDUSTRIES …, priority 2016, published 2020).

Type in all cases: cell-based
The subject of assay [1] is Human keratinocytes. As to the kind of experiment: protein assay by the BCA method on cadmium-exposed keratinocyte culture. The note with it: product 24 h then cadmium 35 μM 24 h, sulforaphane at 1 μM, Extract A at 0.5%. Here is the method:
(§1) Principle of the evaluation: evaluation of the effects of an exposure to cadmium on a keratinocyte culture.
(§2) Protocol: Human keratinocytes are cultured in a 96-well culture plate. After a few days of culture, the products evaluated, namely the Extract A at 0.5% by weight and sulforaphane (a positive reference known to those skilled in the art), are applied in the culture medium. At the end of incubation for 24 hours, the cells are exposed to a solution of cadmium at 35 μM for 24 hours, then 24 hours later, the following various evaluations are carried out: • evaluation of the cell viability by means of a DNA assay by the Hoechst method • evaluation of the cell metabolism by means of a protein assay by the BCA method; • evaluation of the inflammatory component by means of an assay for the cytokines IL-1a and IL-8.

The test system of another assay is cytokine IL-8. As to the kind of experiment: assay for the cytokine IL-8 in cadmium-exposed keratinocyte culture. The note with it: human keratinocytes, product 24 h then cadmium 35 μM 24 h; sulforaphane at 1 μM, Extract A at 0.5%. Here is the method: as §1, §2
The subject of the next assay is cytokine IL-1α. As to the kind of experiment: assay for the cytokine IL-1α in cadmium-exposed keratinocyte culture. The note with it: human keratinocytes, product 24 h then cadmium 35 μM 24 h; sulforaphane at 1 μM, Extract A at 0.5%. The protocol: as §1, §2
In assay [2] the test system is Human keratinocytes. As to the kind of experiment: DNA assay by the Hoechst method on cadmium-exposed keratinocyte culture. To be noted: product 24 h then cadmium 35 μM 24 h, sulforaphane at 1 μM, Extract A at 0.5%. Here is the method: as §1, §2

As for `C[S+]([O-])CCCCN=C=S` (stereo not shown) [sulforaphane], the “Mean values of the expressed proteins” value in the assay on Human keratinocytes [1] stood at 156.7 µg/mL. In addition, the “Mean values of IL-8 expressed” value with cytokine IL-8 is 3.7081 pg/μg of proteins. Further, the “Mean values of IL-1α expressed” value with cytokine IL-1α is 0.8238 pg/μg of proteins. Moreover, the “Mean values of the expressed DNA” value in the assay on Human keratinocytes [2] was 6.7 µg/mL.
